This is an account of results in patent US9061994B1, “Materials and methods useful to induce vacuolization, cell death, or a combination thereof” (The University of Toledo, priority 2011, dated 2015).

“Also recorded” adds a separate entry of the source. Where two headings read alike, the source gives them in different places.

In data set [1] the test system is temozolomide-resistant U251 cells (U251-TR). Put plainly: MTT cell viability assay, temozolomide-resistant cells. The data set is classed as cell-based, human. (In general: Formazan colour is commonly taken as a measure of viable cells.)
Data set [2] has as its system LN229, U2OS, MCF7, SW480 and PANC-1 cancer cell lines. Put plainly: MTT cell viability assay, other cancer cell lines. The data set is classed as cell-based. Conditions: Homo sapiens; 10 μM MIPP; all of the cancer cell lines (FIG. 27); read-out: reduction of relative cell viability.
In data set [3] the test system is U251 glioblastoma cells. Put plainly: Cell morphology / vacuolization by phase-contrast microscopy. The format is cell-based, human.
The next data set relates to active Rab7. Put plainly: Pull-down assay for active Rab7. The data set is classed as cell-based, human. Particulars: U251; 10 μM; up to 24 h. The procedure:
(§1) GST-fusion proteins were produced in E. coli BL21 (DE3) pLysS and the fusion proteins were bound to glutathione-sepharose 4B beads. Pull-down assays for active Rab5 using the GST-Rabaptin-5 beads were performed. Assays for active Rab7 were performed. For each determination cell lysates were prepared from ten pooled 10 cm cultures. Monoclonal antibodies against Rab5 or Rab7 were used to probe western blots of the proteins collected on the beads. Results were quantified and normalized as described above for Rac1 and Arf6.

Data set [4] concerns U251 glioblastoma cells. The data set can be described thus: MTT cell viability assay. Particulars: for IC50: Homo sapiens, U-251, 48 h. The format is cell-based, human.
A further data set relates to active Arf6. The data set can be described thus: Pull-down assay for activated Arf6. The data set is classed as cell-based, human. Particulars: U251; 10 μM MIPP; 4 h or 24 h. On the procedure: (§2) Assays for activated Rac1 and Arf6 were performed using EZ-Detect Rac1 or Arf6 activation kits. These assays employ either a GST-fusion protein containing the p21-binding domain of p21-activated protein kinase 1 (PAK1) to selectively bind active Rac1 in whole cell lysates, or GST-GGA3 (Golgi-associated gamma adaptin ear-containing Arf binding protein 3) to pull down active Arf6. The active Rac1 or Arf6 collected on the glutathione beads were subjected to western blot analysis and the chemiluminescence signals were quantified using Alpha Innotech FluorChem HD2 imaging system. The values for active protein in each sample were normalized to α-tubulin. Results were expressed as either the total active Rac1 or Arf6, or the ratio of the active GTPase to the total Rac1 or Arf6 measured in aliquots of the cell lysate.

Data set [5] relates to LN229, U2OS, MCF7, SW480 and PANC-1 cancer cell lines. The data set can be described thus: Colony-forming assay, other cancer cell lines. The data set is classed as cell-based, human. Particulars: exposure for 2 days (FIG. 28). On the procedure:
(§3) For colony-forming assays, cells were plated in 100 mm dishes at 2,500 (U251 and U251-TR) or 1,500 (all other cell lines) cells per dish. Beginning on the day after plating, the cells were exposed to 10 μM MIPP for 2 days, with the medium and drug replenished after 1 day. The cells were fed fresh medium without drug every 2 to 3 d for a period of 10-21 days. To visualize the colonies, the dishes were washed with PBS, fixed for 10 min with ice-cold 100% methanol, and stained with 1% crystal violet in 35% methanol. After 2-3 washes with water, colonies containing at least 50 cells were counted using a dissecting microscope or a Protocol 2 colony counter.
Also disclosed herein is an analysis of the effects of the compound in several other cell lines. These include an additional glioma cell line (LN229), osteosarcoma cells (U2OS), and breast (MCF7), colon (SW480) and pancreatic (PANC-1) carcinoma cells. Similar to the results with U251 cells, 10 μM MIPP induced dramatic cytoplasmic vacuolization in all of the cell lines, as shown in FIG. 26.

In the next data set the test system is U251-TR cells. Put plainly: Colony-forming assay, temozolomide-resistant cells. The data set is classed as cell-based, human. Conditions: 10 μM MIPP, 2 days (FIG. 21). The procedure:
as §3

Data set [6] deals with U251 glioblastoma cells. The data set can be described thus: ATP level (CellTiter Glo). The data set is classed as cell-based, human. Particulars: second day after addition of MIPP (FIG. 13). From the text: To compare the levels of ATP in MIPP-treated glioblastoma cells versus controls treated with an equivalent volume of DMSO, the cells were harvested by trypsinization and assayed using the CellTiter Glo kit from Promega according to the manufacturer's instructions.
For orientation: ATP-based viability assays read luminescence as a measure of living cells.

Data set [7] in a line: MTT cell viability assay, mammary epithelial cells. The format is cell-based. Particulars: human, MCF-10A mammary epithelial cells, 10 μM MIPP (FIG. 27), read-out: reduction in cell viability.
The subject of another data set is active Rac1. Put plainly: Pull-down assay for activated Rac1. The data set is classed as cell-based, human. Conditions: U251; 10 μM MIPP; 4 h or 24 h. The procedure:
as §2

For data set [8], the system named is U251 glioblastoma cells. The data set can be described thus: Colony-forming assay. Conditions: cells treated for 2 days (FIGS. 15, 40). The format is cell-based, human.
Another data set has as its system active Rab5. Put plainly: Pull-down assay for active Rab5. The format is cell-based, human. Conditions: U251; 10 μM; 4 h and 24 h. The procedure:
as §1

The nature of data set [9]: MTT cell viability assay, normal fibroblasts. The format is cell-based. Particulars: human, normal skin fibroblasts, 10 μM MIPP (FIG. 27), read-out: reduction in cell viability.

With `Cc1[nH]c2ccccc2c1C=CC(=O)c1ccncc1` [MIPP, 3-(2-methyl-1H-indol-3-yl)-1-(4-pyridinyl)-2-propen-1-one], in data set [1] (FIGS. 41A-41B), the “methuosis and cell viability in TMZ-resistant cells, in words” value is “induced methuosis and reduced cell viability in the TMZ-resistant cells”. The IC50 – broadly, the point on the concentration scale where inhibition reaches its midpoint – was found to be 6 µM in [1] (Homo sapiens, U-251, 48 h, U251-TR, MTT dose-response over a 2-day period (FIG. 20)); 4.8 µM in the data set with U251 glioblastoma cells [4] (U251, two days, medium and compound replenished after the first day (FIG. 37D), read-out: IC50 (cell viability)); 3.5 µM with U251 glioblastoma cells [4] (parental U251, MTT dose-response over a 2-day period (FIG. 20), read-out: IC50, parental cells). Also, the cytotoxicity at 10 μM is 50 to 90% in [2], 30% in data set [7] and 40% in [9]. The “cell morphology / vacuolization” value was “behaved similarly to Compound I when tested at 1 μM” with U251 glioblastoma cells [3] (1 μM); “induced vacuoles that were larger and more numerous than those induced by Compound I” in the data set on U251 glioblastoma cells [3] (10 μM). Moreover, the “amount / activation state of active Rab7” value with active Rab7 is “more than doubling by 24 h”. Also, the “relative cell viability, in words” value with U251 glioblastoma cells [4] (U251, 10 μM, first two days of treatment (FIG. 12)) is on record as “marked decrease in the relative cell viability”. In the data set with active Arf6, the “amount of active Arf6” value is reported as “no significant effects”. Also, the “long-term cell survival (colony formation)” value in data set [5] is reported as “significantly reduced long-term cell survival in all cases”. In addition, in the data set with U251-TR cells, the “survival (colony formation)” value is listed as “significant decline in survival”. In the data set on U251 glioblastoma cells [6], the ATP level result is recorded as “significant decrease in ATP”. Moreover, the “amount of active Rac1” value in the data set with active Rac1 is on record as “no significant effects”. Also, the colony formation entry in the data set on U251 glioblastoma cells [8] is given as “non-viable in colony-forming assays; also recorded: reduced colony formation”. Also, the “amount of active Rab5” value in the data set with active Rab5 is “striking decline in the amount of active Rab5”.
